{"source": "PubChem BioAssay AID2060890", "about": "(Molecular Pharmacology Branch, DTP, NCI, 2025);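 also: spheroids exposed to agents for 7 days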;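 as to viability, T/C: 100% = DMSO vehicle wells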", "test_system": "LG0703-F948-PDC complex spheroid viability", "assay": "Anticancer human tumor LG0703-F948-PDC patient-derived lung adenocarcinoma cell line growth inhibition [RAS]", "settings": "for IC50: curve of first compound; for viability, T/C: stronger effect = lower value", "in_short": "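Tumour cells grown as complex spheroids with HUVEC endothelial cells and mesenchymal stem cells, treated with RAS pathway inhibitor combinations. Each agent spans half-log steps from near clinical Cmax, or 10 microM where Cmax is unknown.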", "data": [{"smiles": "CCc1c2c(nc3ccc(O)cc13)-c1cc3c(c(=O)n1C2)COC(=O)[C@]3(O)CC", "note": "+ C=CC(=O)N1CCN(c2nc(OCC3CCCN3C)nc3c(F)c(-c4nc(N)cc(C)c4C(F)(F)F)c(Cl)cc23)C(C)C1", "values": [{"measurement": "IC50", "setting": "second compound 0.00316 µM", "result": 0.0418, "unit": "µM"}, {"measurement": "IC50", "setting": "second compound 0.01 µM", "result": 0.0513, "unit": "µM"}, {"measurement": "IC50", "setting": "second compound 0.0316 µM", "result": 0.0376, "unit": "µM"}, {"measurement": "IC50", "setting": "second compound 0.1 µM", "result": 0.0305, "unit": "µM"}, {"measurement": "IC50", "setting": "second compound 0.316 µM", "result": 0.0444, "unit": "µM"}, {"measurement": "IC50", "setting": "second compound 1 µM", "result": 0.0508, "unit": "µM"}, {"measurement": "viability, T/C", "setting": "second compound 0.00316 µM, first compound 0.000949 µM", "result": 102, "unit": "%"}, {"measurement": "viability, T/C", "setting": "second compound 0.00316 µM, first compound 0.003 µM", "result": 99.9, "unit": "%"}, {"measurement": "viability, T/C", "setting": "second compound 0.00316 µM, first compound 0.00949 µM", "result": 77.8, "unit": "%"}, {"measurement": "viability, T/C", "setting": "second compound 0.00316 µM, first compound 0.03 µM", "result": 54.5, "unit": "%"}, {"measurement": "viability, T/C", "setting": "second compound 0.00316 µM, first compound 0.0949 µM", "result": 38.3, "unit": "%"}, {"measurement": "viability, T/C", "setting": "second compound 0.00316 µM, first compound 0.3 µM", "result": 22.9, "unit": "%"}, {"measurement": "viability, T/C", "setting": "second compound 0.01 µM, first compound 0.000949 µM", "result": 105, "unit": "%"}, {"measurement": "viability, T/C", "setting": "second compound 0.01 µM, first compound 0.003 µM", "result": 87.5, "unit": "%"}, {"measurement": "viability, T/C", "setting": "second compound 0.01 µM, first compound 0.00949 µM", "result": 80.7, "unit": "%"}, {"measurement": "viability, T/C", "setting": "second compound 0.01 µM, first compound 0.03 µM", "result": 61.3, "unit": "%"}, {"measurement": "viability, T/C", "setting": "second compound 0.01 µM, first compound 0.0949 µM", "result": 36.4, "unit": "%"}, {"measurement": "viability, T/C", "setting": "second compound 0.01 µM, first compound 0.3 µM", "result": 20.7, "unit": "%"}, {"measurement": "viability, T/C", "setting": "second compound 0.0316 µM, first compound 0.000949 µM", "result": 102, "unit": "%"}, {"measurement": "viability, T/C", "setting": "second compound 0.0316 µM, first compound 0.003 µM", "result": 106, "unit": "%"}, {"measurement": "viability, T/C", "setting": "second compound 0.0316 µM, first compound 0.00949 µM", "result": 92.1, "unit": "%"}, {"measurement": "viability, T/C", "setting": "second compound 0.0316 µM, first compound 0.03 µM", "result": 53, "unit": "%"}, {"measurement": "viability, T/C", "setting": "second compound 0.0316 µM, first compound 0.0949 µM", "result": 34, "unit": "%"}, {"measurement": "viability, T/C", "setting": "second compound 0.0316 µM, first compound 0.3 µM", "result": 21, "unit": "%"}, {"measurement": "viability, T/C", "setting": "second compound 0.1 µM, first compound 0.000949 µM", "result": 97.8, "unit": "%"}, {"measurement": "viability, T/C", "setting": "second compound 0.1 µM, first compound 0.003 µM", "result": 103, "unit": "%"}, {"measurement": "viability, T/C", "setting": "second compound 0.1 µM, first compound 0.00949 µM", "result": 63.4, "unit": "%"}, {"measurement": "viability, T/C", "setting": "second compound 0.1 µM, first compound 0.03 µM", "result": 53.1, "unit": "%"}, {"measurement": "viability, T/C", "setting": "second compound 0.1 µM, first compound 0.0949 µM", "result": 35.8, "unit": "%"}, {"measurement": "viability, T/C", "setting": "second compound 0.1 µM, first compound 0.3 µM", "result": 21.2, "unit": "%"}, {"measurement": "viability, T/C", "setting": "second compound 0.316 µM, first compound 0.000949 µM", "result": 104, "unit": "%"}, {"measurement": "viability, T/C", "setting": "second compound 0.316 µM, first compound 0.003 µM", "result": 103, "unit": "%"}, {"measurement": "viability, T/C", "setting": "second compound 0.316 µM, first compound 0.00949 µM", "result": 83.6, "unit": "%"}, {"measurement": "viability, T/C", "setting": "second compound 0.316 µM, first compound 0.03 µM", "result": 58.8, "unit": "%"}, {"measurement": "viability, T/C", "setting": "second compound 0.316 µM, first compound 0.0949 µM", "result": 34.4, "unit": "%"}, {"measurement": "viability, T/C", "setting": "second compound 0.316 µM, first compound 0.3 µM", "result": 24.3, "unit": "%"}, {"measurement": "viability, T/C", "setting": "second compound 1 µM, first compound 0.000949 µM", "result": 106, "unit": "%"}, {"measurement": "viability, T/C", "setting": "second compound 1 µM, first compound 0.003 µM", "result": 98.8, "unit": "%"}, {"measurement": "viability, T/C", "setting": "second compound 1 µM, first compound 0.00949 µM", "result": 91, "unit": "%"}, {"measurement": "viability, T/C", "setting": "second compound 1 µM, first compound 0.03 µM", "result": 57.3, "unit": "%"}, {"measurement": "viability, T/C", "setting": "second compound 1 µM, first compound 0.0949 µM", "result": 39.8, "unit": "%"}, {"measurement": "viability, T/C", "setting": "second compound 1 µM, first compound 0.3 µM", "result": 20.1, "unit": "%"}]}, {"smiles": "O=C(c1ccc(F)c(F)c1Nc1ccc(I)cc1F)N1CC(O)([C@@H]2CCCCN2)C1", "note": "+ C#Cc1c(F)ccc2cc(O)cc(-c3ncc4c(N5CC6CCC(C5)N6)nc(OCC56CCCN5CC(F)C6)nc4c3F)c12", "values": [{"measurement": "IC50", "setting": "second compound 0.0316 µM", "result": 0.0684, "unit": "µM"}, {"measurement": "IC50", "setting": "second compound 0.1 µM", "result": 0.0621, "unit": "µM"}, {"measurement": "IC50", "setting": "second compound 0.316 µM", "result": 0.0322, "unit": "µM"}, {"measurement": "IC50", "setting": "second compound 1 µM", "result": 0.0328, "unit": "µM"}, {"measurement": "IC50", "setting": "second compound 3.16 µM", "result": 0.00771, "unit": "µM"}, {"measurement": "IC50", "setting": "second compound 10 µM", "result": "< 0.00316", "unit": "µM"}, {"measurement": "viability, T/C", "setting": "second compound 0.0316 µM, first compound 0.00316 µM", "result": 103, "unit": "%"}, {"measurement": "viability, T/C", "setting": "second compound 0.0316 µM, first compound 0.01 µM", "result": 75.2, "unit": "%"}, {"measurement": "viability, T/C", "setting": "second compound 0.0316 µM, first compound 0.0316 µM", "result": 60.5, "unit": "%"}, {"measurement": "viability, T/C", "setting": "second compound 0.0316 µM, first compound 0.1 µM", "result": 45.4, "unit": "%"}, {"measurement": "viability, T/C", "setting": "second compound 0.0316 µM, first compound 0.316 µM", "result": 35.6, "unit": "%"}, {"measurement": "viability, T/C", "setting": "second compound 0.0316 µM, first compound 1 µM", "result": 24.1, "unit": "%"}, {"measurement": "viability, T/C", "setting": "second compound 0.1 µM, first compound 0.00316 µM", "result": 91.8, "unit": "%"}, {"measurement": "viability, T/C", "setting": "second compound 0.1 µM, first compound 0.01 µM", "result": 70.2, "unit": "%"}, {"measurement": "viability, T/C", "setting": "second compound 0.1 µM, first compound 0.0316 µM", "result": 64, "unit": "%"}, {"measurement": "viability, T/C", "setting": "second compound 0.1 µM, first compound 0.1 µM", "result": 39.4, "unit": "%"}, {"measurement": "viability, T/C", "setting": "second compound 0.1 µM, first compound 0.316 µM", "result": 34.2, "unit": "%"}, {"measurement": "viability, T/C", "setting": "second compound 0.1 µM, first compound 1 µM", "result": 21.9, "unit": "%"}, {"measurement": "viability, T/C", "setting": "second compound 0.316 µM, first compound 0.00316 µM", "result": 80.5, "unit": "%"}, {"measurement": "viability, T/C", "setting": "second compound 0.316 µM, first compound 0.01 µM", "result": 66.1, "unit": "%"}, {"measurement": "viability, T/C", "setting": "second compound 0.316 µM, first compound 0.0316 µM", "result": 53.1, "unit": "%"}, {"measurement": "viability, T/C", "setting": "second compound 0.316 µM, first compound 0.1 µM", "result": 31.6, "unit": "%"}, {"measurement": "viability, T/C", "setting": "second compound 0.316 µM, first compound 0.316 µM", "result": 28.2, "unit": "%"}, {"measurement": "viability, T/C", "setting": "second compound 0.316 µM, first compound 1 µM", "result": 22.3, "unit": "%"}, {"measurement": "viability, T/C", "setting": "second compound 1 µM, first compound 0.00316 µM", "result": 66, "unit": "%"}, {"measurement": "viability, T/C", "setting": "second compound 1 µM, first compound 0.01 µM", "result": 54.8, "unit": "%"}, {"measurement": "viability, T/C", "setting": "second compound 1 µM, first compound 0.0316 µM", "result": 51.5, "unit": "%"}, {"measurement": "viability, T/C", "setting": "second compound 1 µM, first compound 0.1 µM", "result": 24.4, "unit": "%"}, {"measurement": "viability, T/C", "setting": "second compound 1 µM, first compound 0.316 µM", "result": 25.1, "unit": "%"}, {"measurement": "viability, T/C", "setting": "second compound 1 µM, first compound 1 µM", "result": 19.7, "unit": "%"}, {"measurement": "viability, T/C", "setting": "second compound 3.16 µM, first compound 0.00316 µM", "result": 56.8, "unit": "%"}, {"measurement": "viability, T/C", "setting": "second compound 3.16 µM, first compound 0.01 µM", "result": 47.9, "unit": "%"}, {"measurement": "viability, T/C", "setting": "second compound 3.16 µM, first compound 0.0316 µM", "result": 33.8, "unit": "%"}, {"measurement": "viability, T/C", "setting": "second compound 3.16 µM, first compound 0.1 µM", "result": 21.4, "unit": "%"}, {"measurement": "viability, T/C", "setting": "second compound 3.16 µM, first compound 0.316 µM", "result": 22.6, "unit": "%"}, {"measurement": "viability, T/C", "setting": "second compound 3.16 µM, first compound 1 µM", "result": 16.3, "unit": "%"}, {"measurement": "viability, T/C", "setting": "second compound 10 µM, first compound 0.00316 µM", "result": 43.9, "unit": "%"}, {"measurement": "viability, T/C", "setting": "second compound 10 µM, first compound 0.01 µM", "result": 38.3, "unit": "%"}, {"measurement": "viability, T/C", "setting": "second compound 10 µM, first compound 0.0316 µM", "result": 18.1, "unit": "%"}, {"measurement": "viability, T/C", "setting": "second compound 10 µM, first compound 0.1 µM", "result": 17.3, "unit": "%"}, {"measurement": "viability, T/C", "setting": "second compound 10 µM, first compound 0.316 µM", "result": 6.81, "unit": "%"}, {"measurement": "viability, T/C", "setting": "second compound 10 µM, first compound 1 µM", "result": 2.29, "unit": "%"}]}]}
